Laboratory results taken from patent US20230219912A1, “HALOGENATED BENZOTHIADIAZINES FOR THE TREATMENT OF CANCER” (BOARD OF REGENTS OF THE UNIVERSITY OF NEBRASKA, priority 2020, published 2023).
Where “and” joins values, the source holds several entries; their conditions need not be identical. Equal values may be shown once. Entries after “also recorded” stand apart in the source; their conditions may differ. Read-outs that look alike come from different tables or passages of the source.

Columns and labels:
[1] = system: VEGF-induced proliferation of HUVEC cells; assay: VEGF-induced HUVEC proliferation, MTT assay; type: cell-based, human; conditions: for inhibition at 20 µM: Homo sapiens, HUVEC, 48 h, read-out: % Inhibition of Proliferation; for inhibition of VEGF-induced HUVEC proliferation (in words): 20 μM
Experimental: The assay was performed as follows. Vascular endothelial growth factor (VEGF, Cat #SRP3182) was purchased from Sigma. […] Stock solutions of all compounds were prepared in DMSO and were serially diluted for cell culture treatment maintaining the final DMSO concentration at less than 1%. Cell proliferation of HUVECs was evaluated through the MTT (3-[4, 5-dimethylthiazol-2-yl]-2, 5-dimethyltetrazolium bromide) colorimetric assay, as previously described.^28 The HUVECs were seeded at a density of 10,000 cells/well in 24 well plates in serum-containing medium and cultured overnight. Cells were starved with 300 μL of assay media (0.1% BSA+0.1% FBS in basal medium) for 24 h. Then, cells were treated with 500 μL of assay medium (control group), VEGF (10 ng/mL, positive control group) or VEGF along with compounds (20 μM). After 48 h of culture, 50 μL of MTT stock (5 mg/mL in PBS) was added to each well and incubated for 2 h at 37° C. to allow the formation of dark blue formazan crystals in the metabolically active cells. The medium was removed, the cells were washed with PBS (pH 7.4), and 100 μL of acidified isopropanol (0.33 mL HCl in 100 mL isopropanol) was added to each well and incubated for 5 min with thorough agitation to solubilize the formazan crystals. An equal volume of the solution was transferred to a 96-well plate and the absorbance was immediately measured using a microplate reader at a wavelength of 570 nm.

[2] = target: T1, Mitochondrial respiratory complex II (Rattus norvegicus, UniProt P21913+Q641Z9+Q6PCT8+Q920L2); assay: Mitochondrial respiratory complex II inhibition assay; type: biochemical; conditions: 100 μM, relative to DMSO control; for inhibition at 100 µM: read-out: inhibition of CII
T1 construct: measured spectrophotometrically using isolated rat heart mitochondria; from tissue; host or cells: rat heart mitochondria / sub-mitochondrial particles
Experimental: The assay was performed as follows. Mitochondria were isolated either from fresh rat hearts or by differential centrifugation in sucrose-based buffer as previously described.^24 Complex II enzymatic activity was determined spectrophotometrically as the rate of succinate-driven, co-enzyme Q2-linked reduction of dichlorophenolindophenol (DCPIP).^49 Mitochondria or sub-mitochondrial particles were incubated in phosphate buffer (pH 7.4) containing 40 μM DCPIP, 1 mM KCN, 10 μM rotenone, and 50 μM co-enzyme Q2. The rate of reduction of DCPIP to DCPIPH2 was followed at […] (ε=21,000 M-1). Varying amounts of succinate and inhibitors were used to determine an IC50 value. At the end of each run thenoyltrifluoroacetone (1 mM) was added and the residual TTFA-insensitive rate subtracted.

[3] = system: 22Rv1 prostate cancer cells; assay: MTS cytotoxicity assay in 22Rv1 prostate cancer cells; conditions: 100 μM, 48 hrs treatment, MTS
Experimental: The assay was performed as follows. To determine the cell growth inhibition ability of the synthesized compounds the (3-(4,5-dimethylthiazol-2-yl)-5-(3-carboxymethoxyphenyl)-2-(4-sulfophenyl)-2H-tetrazolium) (MTS) assay used according to the manufacturer's recommended protocol. Stock solutions of the synthesized compounds were prepared in DMSO. Cells were seeded at a density of 1×10^5 cells in 96-well plates. After 24 hours, cells were treated at the indicated concentrations of test compounds, limiting the final DMSO concentration to less than 1%. After incubation at 37° C. in an environment of 5% CO2 for 48-72 hours, 10 μL of MTS reagent (CellTiter 96© AQueous One Solution Reagent) was added to each well and incubated at the above mentioned conditions for 2-4 hr. Absorbance was recorded at 490 nm on a BioTek Synergy Mx multimode plate reader and the viability of cells were plotted as percentage of controls.

[4] = 20 μM compound, VEGF 10 ng/mL, relative to VEGF treated cells, mean ± SEM n = 3

T1 sequence (Q920L2 35-656): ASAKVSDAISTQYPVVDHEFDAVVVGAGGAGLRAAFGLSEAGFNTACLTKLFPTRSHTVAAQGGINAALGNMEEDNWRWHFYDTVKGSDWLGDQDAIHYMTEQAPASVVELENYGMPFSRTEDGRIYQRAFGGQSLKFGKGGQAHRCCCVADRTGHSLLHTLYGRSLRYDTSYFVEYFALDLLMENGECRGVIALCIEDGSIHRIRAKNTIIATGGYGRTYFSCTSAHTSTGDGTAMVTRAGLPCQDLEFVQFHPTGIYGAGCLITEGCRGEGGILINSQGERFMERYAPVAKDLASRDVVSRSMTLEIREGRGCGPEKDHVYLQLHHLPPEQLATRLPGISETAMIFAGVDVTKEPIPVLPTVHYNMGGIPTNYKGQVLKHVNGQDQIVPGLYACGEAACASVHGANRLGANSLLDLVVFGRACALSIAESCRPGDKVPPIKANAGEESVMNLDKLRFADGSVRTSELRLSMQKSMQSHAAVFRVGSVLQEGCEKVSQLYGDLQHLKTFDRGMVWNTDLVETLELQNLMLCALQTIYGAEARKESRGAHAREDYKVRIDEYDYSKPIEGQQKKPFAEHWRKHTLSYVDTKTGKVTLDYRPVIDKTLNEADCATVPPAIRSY
T1 sequence (P21913 31-282): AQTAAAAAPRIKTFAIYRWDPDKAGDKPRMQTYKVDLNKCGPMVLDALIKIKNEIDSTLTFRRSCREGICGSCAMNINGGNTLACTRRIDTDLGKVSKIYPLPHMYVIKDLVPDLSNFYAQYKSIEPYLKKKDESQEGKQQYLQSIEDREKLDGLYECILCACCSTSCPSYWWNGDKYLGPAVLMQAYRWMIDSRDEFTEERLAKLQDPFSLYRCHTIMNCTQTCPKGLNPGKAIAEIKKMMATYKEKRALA
T1 sequence (Q641Z9 1-169): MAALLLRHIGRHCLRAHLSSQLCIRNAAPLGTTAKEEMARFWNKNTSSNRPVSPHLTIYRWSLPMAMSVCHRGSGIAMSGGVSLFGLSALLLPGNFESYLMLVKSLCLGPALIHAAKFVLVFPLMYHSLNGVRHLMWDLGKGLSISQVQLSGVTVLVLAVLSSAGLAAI
T1 sequence (Q6PCT8 57-159): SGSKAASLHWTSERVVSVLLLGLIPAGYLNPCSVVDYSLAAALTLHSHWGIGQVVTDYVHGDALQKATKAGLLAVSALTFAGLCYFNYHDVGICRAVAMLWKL

O=S1(=O)N=C(NCc2ccc(F)cc2F)Nc2ccc(Br)cc21 [Compound 29c, 7-bromo-3-((2,4-difluorobenzyl)amino)-4H-benzo[e][1,2,4]thiadiazine 1,1-dioxide] showed an inhibition at 20 µM [1, 4] of 127%.
With O=S1(=O)N=C(NCc2ccc(C(F)(F)F)cc2)Nc2cc(Cl)ccc21 [Compound 25b, 6-chloro-3-((4-(trifluoromethyl)benzyl)amino)-4H-benzo[e][1,2,4]thiadiazine 1,1-dioxide] the inhibition at 100 µM [2] was 19% and the inhibition at 20 µM [1, 4] was 1 ± 43%.
Cc1ccccc1CNC1=NS(=O)(=O)c2ccc(Cl)cc2N1 [Compound 41b, 6-Chloro-3-((2-methylbenzyl)amino)-4H-benzo[e][1,2,4]thiadiazine 1,1-dioxide] was tested, and the “inhibition of VEGF-induced HUVEC proliferation (in words)” value (shortened to “inhibition … (in words)”) ([1]; VEGF 10 ng/mL) was “suppressed HUVEC proliferation; also recorded: enhanced activity” and the inhibition at 20 µM [1, 4] was 111 ± 9%.
Work on O=S1(=O)N=C(NCCc2c[nH]c3ccccc23)Nc2cc(Cl)ccc21 [Compound 36b, 3-((2-(1H-indol-3-yl)ethyl)amino)-6-chloro-4H-benzo[e][1,2,4]thiadiazine 1,1-dioxide] yielded an inhibition at 100 µM [2] of 25% and an inhibition at 20 µM [1, 4] of 24 ± 38%.
For O=S1(=O)N=C(NCCc2ccccc2)Nc2cc(Cl)ccc21 [Compound 18b, 6-chloro-3-(phenethylamino)-4H-benzo[e][1,2,4]thiadiazine 1,1-dioxide], the “inhibition … (in words)” value ([1]; VEGF 10 ng/mL) was “suppressed HUVEC proliferation; also recorded: enhanced activity” and the inhibition at 20 µM [1] was 118 ± 12%.
For O=S1(=O)N=C(NCCc2ccccc2)Nc2ccc(Cl)cc21 [Compound 55e, 7-Chloro-3-(phenethylamino)-4H-benzo[e][1,2,4]thiadiazine 1,1-dioxide], the inhibition at 20 µM [1] was 82 ± 10%.
CCNC1=NS(=O)(=O)c2ccccc2N1 [Compound 19d, 3-(ethylamino)-4H-benzo[e][1,2,4]thiadiazine 1,1-dioxide] was tested, and the inhibition at 20 µM [1, 4] was 81 ± 25%.
O=C1Nc2cc(Cl)ccc2S(=O)(=O)N1 [Compound 11b, 6-chloro-3-oxo-3,4-dihydro-2H-1,2,4-benzothiadiazine1,1-dioxide] was tested, and the inhibition at 20 µM [1] was 0%.
Work on Cc1ccc(CNC2=NS(=O)(=O)c3ccc(Cl)cc3N2)cc1 [Compound 27b, 6-chloro-3-((4-methylbenzyl)amino)-4H-benzo[e][1,2,4]thiadiazine 1,1-dioxide] yielded an inhibition at 20 µM [1, 4] of 146 ± 18%.
Cc1cccc(CNC2=NS(=O)(=O)c3ccc(Cl)cc3N2)c1 [Compound 42b, 6-Chloro-3-((3-methylbenzyl)amino)-4H-benzo[e][1,2,4]thiadiazine 1,1-dioxide] was tested, and the “inhibition … (in words)” value ([1]; VEGF 10 ng/mL) was “suppressed HUVEC proliferation; also recorded: enhanced activity” and the inhibition at 20 µM [1] was 125 ± 10%.
Work on C=CCNC1=NS(=O)(=O)c2ccc(Cl)cc2N1 [Compound 32b, 3-(allylamino)-6-chloro-4H-benzo[e][1,2,4]thiadiazine 1,1-dioxide] yielded an inhibition at 20 µM [1, 4] of 0%.
For CSC1=NS(=O)(=O)c2cc(F)ccc2N1C [Compound 42a, 7-fluoro-4-methyl-3-(methylthio)-4H-benzo[e][1,2,4]thiadiazine 1,1-dioxide], the “inhibition … (in words)” value ([1]; VEGF 10 ng/mL) was “no appreciable inhibition” and the inhibition at 20 µM [1, 4] was 41 ± 30%.
O=S1(=O)N=C(NCc2ccc(F)cc2)Nc2ccc(Cl)cc21 [Compound 54e, 7-Chloro-3-((4-fluorobenzyl)amino)-4H-benzo[e][1,2,4]thiadiazine 1,1-dioxide] gave an inhibition at 20 µM [1, 4] of 70 ± 23%.
For O=S1(=O)N=C(NCc2ccc(Cl)cc2)Nc2ccc(F)cc21 [Compound 16a, 3-((4-chlorobenzyl)amino)-7-fluoro-4H-benzo[e][1,2,4]thiadiazine 1,1-dioxide], the “reduction of 22Rv1 cell viability” value [3] was “inactive”.
In the case of O=S1(=O)N=C(NCc2ccc(C(F)(F)F)cc2)Nc2ccc(F)cc21 [Compound 25a, 7-fluoro-3-((4-(trifluoromethyl)benzyl)amino)-4H-benzo[e][1,2,4]thiadiazine 1,1-dioxide], the “inhibition of CII” value [2] is reported as 7% and 0%.
For O=S1(=O)N=C(NCc2ccc(Cl)cc2)Nc2ccc(Br)cc21 [Compound 16c, 7-bromo-3-((4-chlorobenzyl)amino)-4H-benzo[e][1,2,4]thiadiazine 1,1-dioxide dioxide], the “inhibition of CII” value [2] was 45%.
With O=S1(=O)N=C(NCc2ccc(Cl)cc2)Nc2ccccc21 [Compound 16d, 3-((4-chlorobenzyl)amino)-4H-benzo[e][1,2,4]thiadiazine 1,1-dioxide] the “inhibition of CII” value [2] was “inactive”.
For COc1ccccc1CNC1=NS(=O)(=O)c2ccc(Cl)cc2N1 [Compound 26b, 6-chloro-3-((2-methoxybenzyl)amino)-4H-benzo[e][1,2,4]thiadiazine 1,1-dioxide], the inhibition at 20 µM [1, 4] was 79 ± 26%.
With O=S1(=O)N=C(NCc2ccccc2)Nc2ccc(Cl)cc21 [Compound 57e, 3-(Benzylamino)-7-chloro-4H-benzo[e][1,2,4]thiadiazine 1,1-dioxide] the “inhibition … (in words)” value ([1]; VEGF 10 ng/mL) was “suppressed HUVEC proliferation; also recorded: enhanced activity” and the inhibition at 20 µM [1, 4] was 122 ± 9%.
COc1cccc(CCNC2=NS(=O)(=O)c3ccc(Cl)cc3N2)c1 [Compound 40b, 6-chloro-3-((3-methoxyphenethyl)amino)-4H-benzo[e][1,2,4]thiadiazine 1,1-dioxide] showed an inhibition at 20 µM [1] of 99 ± 22%.
O=S1(=O)N=C(NCCCc2ccccc2)Nc2ccccc21 [Compound 23d, 3-((3-phenylpropyl)amino)-4H-benzo[e][1,2,4]thiadiazine 1,1-dioxide] gave an inhibition at 100 µM [2] of 0% and an inhibition at 20 µM [1, 4] of 39 ± 68%.
For Cc1ccc(CNC2=NS(=O)(=O)c3cc(F)ccc3N2)cc1 [Compound 27a, 7-fluoro-3-((4-methylbenzyl)amino)-4H-benzo[e][1,2,4]thiadiazine 1,1-dioxide], the inhibition at 100 µM [2] was 23%.
For CC(C)NC1=NS(=O)(=O)c2ccc(Cl)cc2N1 [Compound 14b, 6-Chloro-3-isopropylamino-4H-1,2,4-benzothiadiazine 1,1-Dioxide], the inhibition at 20 µM [1] was 146 ± 18%.
O=S1(=O)N=C(NCc2ccncc2)Nc2ccc(Cl)cc21 [Compound 66e, 7-Chloro-3-((pyridin-4-ylmethyl)amino)-4H-benzo[e][1,2,4]thiadiazine 1,1-dioxide] was tested, and the “inhibition … (in words)” value ([1]; VEGF 10 ng/mL) was “suppressed HUVEC proliferation; also recorded: enhanced activity” and the inhibition at 20 µM [1, 4] was 67 ± 27%.
For O=S1(=O)N=C(NC2CCCC2)Nc2ccc(F)cc21 [Compound 22a, 7-fluoro-3-(cyclopentylamino)-4H-benzo[e][1,2,4]thiadiazine 1,1-dioxide], the “inhibition of CII” value [2] was “inactive”.
With CSC1=NS(=O)(=O)c2ccc(Cl)cc2N1 [Compound 13b, 6-Chloro-3-methylsulfanyl-4H-1,2,4-benzothiadiazine 1,1-Dioxide] the inhibition at 20 µM [1, 4] was 21 ± 23%.
With COc1ccc(CNC2=NS(=O)(=O)c3ccc(Cl)cc3N2)cc1 [Compound 20b, 6-chloro-3-((4-methoxybenzyl)amino)-4H-benzo[e][1,2,4]thiadiazine 1,1-dioxide] the “inhibition … (in words)” value ([1]; VEGF 10 ng/mL) was “suppressed HUVEC proliferation; also recorded: enhanced activity” and the inhibition at 20 µM [1, 4] was 132 ± 24%.
With COc1ccc(CCNC2=NS(=O)(=O)c3cc(F)ccc3N2)cc1 [Compound 9a] the “inhibition … (in words)” value ([1]; VEGF 10 ng/mL) was “no appreciable inhibition” and the inhibition at 20 µM [1] was 70 ± 22%.
Work on COc1cccc(CNC2=NS(=O)(=O)c3ccc(Cl)cc3N2)c1 [Compound 28b, 6-chloro-3-((3-methoxybenzyl)amino)-4H-benzo[e][1,2,4]thiadiazine 1,1-dioxide] yielded an inhibition at 20 µM [1] of 126 ± 26%.
Molecule O=S1(=O)N=C(NCc2ccc(F)cc2)Nc2cc(Cl)ccc21 [Compound 17b, 6-chloro-3-((4-fluorobenzyl)amino)-4H-benzo[e][1,2,4]thiadiazine 1,1-dioxide] has an inhibition at 20 µM [1, 4] of 0%.
